Assay: Inhibition of PDK1 (unknown origin)

IC50: 4.8 µM
Structure (SMILES): Nc1ncnc2c1c(-c1cccc(OCc3ccccc3)c1)cn2[C@H]1C[C@@H](CN2CCC2)C1

From BindingDB's records for PubMed 15050915 (Novartis Institutes for BioMedical Research)
